Experimental data published in patent US20090149551A1 (priority 2007, published 2009).
Like-named read-outs stand apart in the source and are kept apart here.

Experiments:
[1] = tested on: pooled human liver microsomes
human HepG2 cells [2] = conditions: HepG2, co-treatment with AFB1; Zhou et al. 2006; cited from earlier work
[3] = target: T1, recombinant human P450 3A4 (Homo sapiens, UniProt P08684); assay: Vivid P450 3A4 activity assay with NADPH regenerating system; assay type: biochemical; conditions: for decrease of P450 3A4 activity: 2 μM DBOMF
T1 construct: purchased Invitrogen (Carlsbad, Calif.)
T1 sequence (P08684 whole entry): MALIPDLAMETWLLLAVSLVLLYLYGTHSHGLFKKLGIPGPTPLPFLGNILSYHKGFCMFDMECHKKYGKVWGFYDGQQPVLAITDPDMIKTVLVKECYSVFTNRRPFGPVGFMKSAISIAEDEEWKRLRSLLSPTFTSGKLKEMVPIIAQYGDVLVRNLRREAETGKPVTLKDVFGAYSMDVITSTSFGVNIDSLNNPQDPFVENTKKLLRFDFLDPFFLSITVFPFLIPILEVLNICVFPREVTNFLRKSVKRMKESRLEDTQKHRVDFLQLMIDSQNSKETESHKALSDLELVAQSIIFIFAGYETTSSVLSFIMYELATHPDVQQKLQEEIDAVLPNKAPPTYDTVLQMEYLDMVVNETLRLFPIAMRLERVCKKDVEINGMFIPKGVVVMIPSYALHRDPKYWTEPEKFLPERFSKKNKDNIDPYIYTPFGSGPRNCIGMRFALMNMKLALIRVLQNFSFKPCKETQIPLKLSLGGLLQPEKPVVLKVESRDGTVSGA
Method: (§1) The Vivid® P450 3A4 activity assay was carried out according to the manufacturer's protocol. Briefly, water (30 μL) and solutions of HCT (10 μL) were added to wells of a 96-well black plate. Master pre-mix solutions (50 μL) containing recombinant human P450 3A4 and rabbit NADPH P450 reductase were then added, and the resulting solutions were equilibrated at room temperature for 20 min. Finally, 10 μL of mixed NADP^+ and DBOMF substrate solutions were added, and the fluorescence intensity over time was recorded with a fluorometer at the excitation and emission wavelengths of 485 and 535 nm, respectively. The final concentrations were 100 mM phosphate buffer (pH 8.0), 3.3 mM glucose-6-phosphate, 0.3 unit/mL glucose-6-phosphate dehydrogenase, 1.0 mM NADP^+, 2 μM DBOMF and 5 nM P450 3A4 with 0.1% DMSO. Control experiments included no DBOMF as the background and 1 μM ketoconazole as the positive control. The rates of the P450 activity were obtained from the slope of the change of the fluorescent intensity over the initial 8 min.
(§2) Enzyme and Cellular Studies with OHCT. The inhibitory effect of OHCT on P450 3A4 and the metabolic conversion of AFB1 with liver microsomes were studied similarly as described for HCT. […] The P450 activity was carried out similarly as described above with concentrations of DBOMF at 0.50, 0.67, 1.0, and 2.0 μM, respectively. The rates of the P450 activity were obtained as the slope of the change of the fluorescent intensity over the initial 4 min. The inhibitory constants of OHCT were obtained from the global best fit of the mixed inhibition model by GraphPad Prism (version 4.00, GraphPad Software, San Diego, Calif.).

P450 1A/1B = conditions: HepG2, co-treatment with TCDD; cited from earlier work
[4] = Stability in solution by HPLC analysis; assay type: physicochemical
Method: 4b,5,6,7,8,8a-cis-Hexahydro-2-hydroxy-4b,8,8a-trimethylphenanthren-9,10-dione (OHCT). Spontaneous oxidation of HCT to OHCT was carried out in 100 mM phosphate buffer (pH 7.4) and 1.0 mM HCT in 10% acetonitrile. […]

human HepG2 cells [5] = assay type: cell-based; conditions: for chemoprotection against AFB1 induced cytotoxicity: 2 μM AFB1, HepG2
Method: The cell viability MTT assay on human HepG2 cells was carried out as previously reported. Briefly, HepG2 cells were seeded at 30,000 cells/well on a 96 well plate for 4 h before the treatment with AFB1 and OHCT or ketoconazole. After incubation for 72 h, the MTT assay was performed, followed by obtaining the absorbance of each well at 570 nm with a plate reader (μQuant, BioTek Instruments, Vt.). The statistical analyses (one-way ANOVA with Dunnett's test) were performed by GraphPad Prism.

[6] = tested on: human liver or lung cells; assay: Toxicity to human liver or lung cells in culture
[7] = Toxicity in mice receiving OHCT; conditions: administration over four days, observed three months after administration
P. falciparum clone Dd2 = assay type: cell-based, Plasmodium falciparum
Method: Cultures of Plasmodium falciparum.
In vitro antiplasmodial activity: All solutions of chloroquine diphosphate, artemisinin (Sigma Aldrich), and OHCT were prepared in media RPMI 1640, ethanol and 0.1% DMSO, respectively. […] Parasite growth was estimated by microscopic observation of Giemsa-stained blood smears. All results presented are the means of at least three independent experiments.
OHCT action on specific parasite life cycle stages: P. falciparum cultures were synchronized with 5% sorbitol and the Percoll-Sorbitol methods. Dilutions of OHCT, chloroquine, and artemisinin were prepared. To determine the in vitro efficacies of the three antimalarial drugs in culture, serial dilutions were prepared: for artemisinin, chloroquine and OHCT at 2, 4, 8, 16, 32 and 40 μM, respectively. After synchronization, the parasites were plated at the ring stage in 96-well plates. Each plate corresponded to one of the successive 6-h periods of the P. falciparum life cycle.

CYP3A4 (P450 3A4) = target: T2, CYP3A4 (P450 3A4) (Homo sapiens, UniProt P08684); assay: Vivid P450 3A4 activity assay with NADPH regenerating system; assay type: biochemical; conditions: human, recombinant human P450 3A4 with rabbit NADPH P450 reductase, pH 8, probe DBOMF 2 μM; 1 μM, 2 μM DBOMF; read-out: inhibition of the enzyme activity (P450 3A4)
T2 construct: purchased Invitrogen (Carlsbad, Calif.)
T2 sequence (P08684 whole entry): as above
Method: as §1, §2

[8] = 40 μM, 50 μM AFB1, NADPH regenerating system, 37° C. 90 min
[9] = mixed inhibition model, global best fit, substrate DBOMF

2-hydroxy-cis-terpenone [HCT]
inhibition of the metabolic conversion of AFB1 in liver microsomes [1, 8]: effective inhibition
inhibition of the α-NF stimulated production of exo-AFB1-epoxide ([1]; 40 μM, with 50 μM α-NF): consistently inhibited
inhibition of the carcinogenic conversion of AFB1 with liver microsomes ([1]; 10, 20, 40 μM): inhibited by HCT in a concentration dependent manner
effect of co-treatment on AFB1 induced cytotoxicity including DNA damage and cell death (human HepG2 cells [2]): reduced AFB1 induced cytotoxicity
decrease of P450 3A4 activity ([3]; 10 μM): ~30%
decrease of P450 3A4 activity ([3]; 20 μM): ~50%
decrease of P450 3A4 activity ([3]; 40 μM): ~70%
IC50 ([3]; purified P450 3A4, read-out: IC50, inhibition of purified P450 3A4 enzyme activity): 20 µM
effect on TCDD induced P450-1 activity (P450 1A/1B): inhibited
stability in the phosphate buffer and in the AFB1 metabolic study ([4]; 100 mM phosphate buffer pH 7.4, 37° C.): slow degradation
stability of stock solutions ([4]; acetonitrile, −15° C., several weeks): no significant degradation

CC1CCCC2(C)c3ccc(O)cc3C(=O)C(=O)C12C (stereo not drawn) [OHCT, 4b,5,6,7,8,8a-cis-Hexahydro-2-hydroxy-4b,8,8a-trimethylphenanthren-9,10-dione]
inhibition of the metabolic conversion of AFB1 in liver microsomes [1, 8]: inhibition of both GSH-AFB1 adducts and aflatoxin Q1
stability under aqueous conditions and in the metabolic study of liver microsomes ([1]; liver microsomes, HPLC): no degradation
cytotoxicity of the compound alone (human HepG2 cells [5]; 60 μM alone, HepG2): no cytotoxicity
cell viability on co-treatment with AFB1 (human HepG2 cells [5]; 60 μM, 2 μM AFB1, HepG2, 72 h, MTT): more than 90%
chemoprotection against AFB1 induced cytotoxicity (human HepG2 cells [5]; 40 and 60 μM): effective chemoprotection
toxicity to human liver or lung cells in culture [6]: no toxicity
decrease of P450 3A4 activity ([3]; 20 μM): 50%
Ki (disassociation constant of enzyme inhibitor complex) [3, 9]: 17.6 ± 5.6 µM
Ki′ (disassociation constant of enzyme-substrate inhibitor complex) [3, 9]: 7.6 ± 1.5 µM
stability under aqueous conditions ([4]; 72 h at 37° C., HPLC): no degradation
signs of toxicity in mice [7]: no signs of toxicity
activity against the gametocyte forms of the parasite (P. falciparum clone Dd2; 2 μM): active
decrease of parasitemia (P. falciparum clone Dd2; 16 μM, 8 h, clone Dd2): 50%
killing of chloroquine resistant clone Dd2 (P. falciparum clone Dd2; 24 hr following treatment, concentration dependent): killed
inhibition of early ring, trophozoite and schizont stages (P. falciparum clone Dd2; clone Dd2, 24 hr): equally inhibited

CC(C)CCC[C@@H](C)[C@H]1CC[C@H]2[C@@H]3CC=C4C[C@@H](O)CC[C@]4(C)[C@H]3CC[C@]12C [cholesterol, reference compound]
inhibitory effect on the metabolic conversion of AFB1 in liver microsomes ([1]; up to 100 μM): no inhibitory effect

CC(=O)N1CCN(c2ccc(OCC3COC(Cn4ccnc4)(c4ccc(Cl)cc4Cl)O3)cc2)CC1 (stereo not shown) [ketoconazole, reference compound]
inhibition of the α-NF stimulated production of exo-AFB1-epoxide [1]: consistently inhibited
inhibition of the metabolism of AFB1 in liver microsomes ([1]; 1 μM, 50 μM AFB1, NADPH regenerating system, 37° C. 90 min): same extent as 40 μM HCT
cell mortality, compound alone (human HepG2 cells [5]; 20 μM alone, HepG2): 20%
chemoprotection against AFB1 induced cytotoxicity (human HepG2 cells [5]; 10 and 20 μM): observed
inhibition at 8 min, 1 μM (CYP3A4 (P450 3A4)): > 90%

O=c1cc(-c2ccccc2)oc2c1ccc1ccccc12 [α-NF, α-naphthoflavone, reference compound]
decrease of aflatoxin Q1 versus no α-NF ([1]; 50 μM): 6 fold
increase of the amount of GSH-AFB1 adducts versus no α-NF ([1]; 50 μM): 2.3 folds
